In paper PMC3776562 (Journal of the American Chemical Society, 2013):

Tests used:
[1] = Intrinsic tryptophan fluorescence emission spectra; format: physicochemical; conditions: excitation at 280 nm; unbound
Experimental: (§1) Intrinsic tryptophan fluorescence was also used to probe the structural changes in these proteins upon association.
(§2) Figure S4. Fluorescence spectra of Mcl-1 and PUMA peptide show Mcl-1 is folded, PUMA is unfolded and binding occurs. […]
(§3) fluorescence spectrum characteristic of buried tryptophans whereas PUMA (blue) […]
(§4) An increase in fluorescence is seen upon mixing 1 µM: 1 µM of Mcl-1 and PUMA peptide. 1:1 complex (black solid line) […]
(§5) a greater signal than the spectrum predicted for no interaction (dashed line), which is the sum of the PUMA alone (blue) and Mcl-1 alone (magenta) spectra.

[2] = molecular target: T1, Mcl-1 (Mus musculus, UniProt P97287); assay: Stopped-flow fluorescence association kinetics of PUMA constructs with Mcl-1; format: binding; conditions: chemical denaturants, lowering total protein concentration, altering temperature
T1 construct: with 151 N-terminal residues and 23 C-terminal residues removed; hexahistidine tag with thrombin cleavage site (N, cleaved yes); made in house; host or cells: Escherichia coli C41 (DE3)
Experimental: The synthetic genes for truncated mouse Mcl-1 (UniProt P97287) with 151 N-terminal residues and 23 C-terminal residues removed (Figure S2C) and GB1-PUMA (Figure S2D) were obtained from Genscript. The genes were inserted into a modified version of the pRSET A vector that encodes an N-terminal hexahistidine tag with a thrombin cleavage site between the tag and the protein. Due to the cleavage of thrombin, a GS is added at the N-termini of Mcl-1. Protein expression was carried out in Escherichia coli C41 (DE3) grown in LB media at 37 °C. […] Identity was confirmed using mass spectrometry, the concentration of GB1-PUMA was determined by the method of Gill von Hippel,[36] and the concentration of Mcl-1 was determined using amino acid analysis.
Mouse PUMA peptide, residues 128–161 (Uniprot Q99ML1) with the M144I mutation used in the NMR structure 2ROC[26], together with N-terminal acetylation and C-terminal amidation, was synthesized by Selleck Chemicals. […] Peptide concentration was determined using amino acid analysis and identity confirmed using mass spectrometry. […]
Association kinetics were monitored by following the change in intrinsic fluorescence on an SX18 or SX20 stopped-flow spectrometer (Applied Photophysics). […] Association kinetics were analyzed using eq 3([51]) that describes irreversible association of two proteins at initial concentrations [A]0 and [B]0: [drawing 3] […]

[3] = molecular target: T1, Mcl-1; assay: Ionic strength dependence of association rate constant (fit to eq 4); format: binding
Experimental: Unless otherwise stated, experiments were carried out in 50 mM sodium phosphate, pH 7.0. For the ionic strength dependence of association protein and peptide were exchanged to the low ionic strength 10 mM MOPS, pH 7.0, buffer (I = 0.004 M) and then ionic strength was controlled using [NaCl]. NaOH was titrated to maintain neutral pH upon addition of NaCl.
Association kinetics were monitored by following the change in intrinsic fluorescence on an SX18 or SX20 stopped-flow spectrometer (Applied Photophysics). All PUMA solutions were incubated at 25 °C for 30 min before use to allow for dissociation of oligomers. Because of mixing artifacts, data collected before the first 5 ms were removed before fitting. Proteins were mixed at near equal (1–0.25 μM) concentrations. Association kinetics were analyzed using eq 3([51]) that describes irreversible association of two proteins at initial concentrations [A]0 and [B]0: [drawing 3] 3 where F is fluorescence, F0 the initial fluorescence, ΔF is the fluorescence amplitude of the reaction, [A]0 is the initial concentration of one protein, [B]0 the other, x = [B]0/[A]0, k+ is the association rate constant, and t is time. Where repeat measurements were made, standard errors are shown as error bars. Errors were propagated using standard equations. […]

[4] = molecular target: T1, Mcl-1; assay: Temperature dependence of association rate constant; format: binding; conditions: stopped-flow fluorescence
Experimental: (§6) Association kinetics were monitored by following the change in intrinsic fluorescence on an SX18 or SX20 stopped-flow spectrometer (Applied Photophysics). All PUMA solutions were incubated at 25 °C for 30 min before use to allow for dissociation of oligomers. Because of mixing artifacts, data collected before the first 5 ms were removed before fitting. Proteins were mixed at near equal (1–0.25 μM) concentrations. Association kinetics were analyzed using eq 3([51]) that describes irreversible association of two proteins at initial concentrations [A]0 and [B]0: [drawing 3] 3 where F is fluorescence, F0 the initial fluorescence, ΔF is the fluorescence amplitude of the reaction, [A]0 is the initial concentration of one protein, [B]0 the other, x = [B]0/[A]0, k+ is the association rate constant, and t is time. Where repeat measurements were made, standard errors are shown as error bars. Errors were propagated using standard equations.

[5] = PUMA peptide oligomerization (CD, size-exclusion chromatography, SDS-PAGE); format: physicochemical
Description: (§7) CD scans were taken in an Applied Photophysics Chirascan, using 10 to 2 mm path length cuvettes. Percentage helicity calculated using the mean residue ellipticity at 222 nm.[24]
Figure S3. PUMA peptide undergoes reversible oligomerization to an α-helical structure. (a) The Circular dichroism spectra of the PUMA peptide becomes more α-helical at higher concentrations, consistent with the formation of an α-helical oligomer.
(b) Oligomers are visible on denaturing SDS-PAGE gel of PUMA peptide at ~10-100 µM concentrations. White numbers refer to elution volumes from FPLC trace (c). (c) […]
PUMA oligomers (i), for comparison a trace for a similar size monomeric peptide is […]
-200 Monomeric BH3 peptide
(1 picture or pasted object on this page, not shown here)

[6] = molecular target: T1, Mcl-1; assay: Viscosity dependence of association rate constant (glucose); format: binding; conditions: glucose as viscogen; relative rate constant vs relative viscosity
Experimental: We measured k+ in varying concentrations of the small-molecule viscogen glucose and the observed k+ did indeed match the predicted rate constant (k0η0/η) (Figure 2B) and produce the standard viscosity plot[37] (k0/k+ vs η/η0) with the expected slope for a ‘diffusion-limited’ reaction, ∼1 (Figure 2C).
as §6

[7] = molecular target: T1, Mcl-1; assay: Fluorescence change on complex formation with Mcl-1; conditions: binding to Mcl-1; intrinsic tryptophan fluorescence
Experimental: as §1, §2, §3, §4, §5

[8] = molecular target: T1, Mcl-1; assay: Urea dependence of association rate constant; format: binding
Description: Urea is a denaturing cosolvent used in protein folding studies to energetically disfavor structured states. […] However, increasing urea concentrations also makes solutions more viscous. […] Further, the natural log of k+ against concentration of urea is linear, with a gradient of m = 0.55 (±0.02) M^–1 (Figure 3D).
as §6

[9] = test system: folded Bcl-2 members; conditions: cited from earlier work
Description: The binding of BH3 regions to folded Bcl-2 family members is, due to their important physiological role and the large number of homologues, one of the most heavily studied coupled folding and binding reactions, particularly with respect to equilibrium binding constants obtained and structures solved.[21],[29] BH3 peptides have potential therapeutic value and have been the focus for the design of peptide-based mimics, including hydrocarbon staples,[42] α/β-peptides,[43] miniature proteins[44] and photoswitchable peptides.[45] To understand the general principles of binding, knowledge of kinetic ...

[10] = molecular target: T1, Mcl-1; assay: Circular dichroism of 1:1 complex with Mcl-1; format: binding; conditions: CD
Description: as §7

[11] = Circular dichroism, unbound PUMA helicity; format: physicochemical; conditions: CD
Experimental: as §7
Figure S9. Changes in helicity of PUMA peptide with solvent and temperature.
Due to the oligomerization of the PUMA peptide circular dichroism (CD) was recorded at the low concentration of 1 µM with a 10 mm pathlength cuvette to maximize signal.
Errors due to buffer subtraction and high absorbances prevent quantitative analysis of these spectra. However, each individual figure was recorded on the same day so qualitative conclusions can be drawn. (a) The helicity of the PUMA peptide is highly temperature dependent, with lower temperatures favoring helical conformations. (b) Increasing concentration of the denaturant urea results in the disfavoring of helical […]
significant change in CD signal.

[12] = molecular target: truncated mouse Mcl-1 (induced myeloid leukemia cell differentiation protein), 151 N-terminal and 23 C-terminal residues removed (mouse) (UniProt P97287); assay: stopped-flow fluorescence kinetics; intrinsic fluorescence; protein and peptide mixed at near equal concentrations (1-0.25 uM), also pseudo-first-order conditions; 50 mM sodium phosphate, pH 7.0; fit to irreversible association (eq 3)
[13] = molecular target: the molecule itself; assay: SEC + other: concentration dependent circular dichroism and denaturing SDS-PAGE; PUMA peptide alone at concentrations above 2 uM; reversible oligomerization
[14] = molecular target: T2, truncated mouse Mcl-1 (induced myeloid leukemia cell differentiation protein), 151 N-terminal and 23 … (mouse, UniProt P97287 152-308); assay: fluorescence kinetics after manual mixing; Mcl-1 and PUMA solutions manually mixed at nanomolar concentrations, fluorescence followed; fit to a model with association and dissociation; conditions: both partners purified
[15] = molecular target: T2, truncated mouse Mcl-1 (induced myeloid …); assay: stopped-flow fluorescence kinetics; intrinsic fluorescence; protein and peptide mixed at near equal concentrations (1-0.25 uM), also pseudo-first-order conditions; 50 mM sodium phosphate, pH 7.0; fit to irreversible association (eq 3); conditions: both partners purified
[16] = Mcl-1 urea unfolding by intrinsic tryptophan fluorescence; format: physicochemical, mouse; conditions: 1 µM Mcl-1, 25 °C, 50 mM PO4 pH 7.0, excitation 280 nm, emission 360 nm
Experimental: Figure S8. Mcl-1 remains folded up to 3.5 M urea. Mcl-1 fraction folded calculated
from the intrinsic tryptophan fluorescence of Mcl-1 (1 µM Mcl-1, 25 °C, 50 mM PO 4
pH 7.0, excitation at 280 nm, 10 nm pathlength, emission at 360 nm, 5nm pathlength).

## Ac-VEEEEWAREIGAQLRRIADDLNAQYERRRQEEQH-NH2 [PUMA peptide]
[1]
  fluorescence emission maximum: 360 nm
[2]
  dissociation of preformed Mcl-1 PUMA complex: No solvent conditions could be found where preformed Mcl-1 PUMA complex could be observed to dissociate without unfolding the structured Mcl-1
[3]; 10 mM MOPS, pH 7.0 (I = 0.004 M), ionic strength controlled with NaCl, fit to eq 4, a set to 6 Å
  rate constant in the absence of long-range electrostatics k+basal: 6 (±1) × 10^5 M^–1 s^–1
[3]; read-out: association rate constant k+ at high ionic strength
  kon: 100000 to 1e+06 M⁻¹ s⁻¹
[4]
  effect of temperature on association: An increase in temperature accelerates association
[5]; concentration dependent CD, size-exclusion chromatography and denaturing SDS-PAGE
  concentration above which reversible oligomerization to highly α-helical structure occurs: above 2 μM
[5]; denaturing SDS-PAGE
  concentration at which oligomers are visible on gel: 10 to 100 µM
[6]
  slope of viscosity plot (k0/k+ vs η/η0): 1.13 ± 0.02
[7]
  overall fluorescence change upon complex formation: significant increase in overall fluorescence upon complex formation
[8]; increasing urea, compared with prediction from viscosity k0η0/η
  effect of urea on k+: decreased by significantly more than what would be expected due to viscosity effects alone
[8]; urea 0 upward, stopped-flow
  m, gradient of ln(k+) against urea concentration: 0.55 (±0.02) M^–1
[9]
  affinity for folded Bcl-2 members relative to other BH3 peptides: greater affinity than most other BH3 peptides
[10]
  helicity on binding Mcl-1: increased α-helicity relative to the two proteins in isolation
[11]; 1 µM, 10 mm pathlength cuvette, 15–60 °C, qualitative
  change in helicity with temperature: less helical at higher temperatures
[11]; 1 µM, 10 mm pathlength cuvette, urea 0–3 M, I 4–214 mM, qualitative
  change in intrinsic helicity with ionic strength and urea: showed little ionic strength dependence but was reduced in the presence of urea
[11]; mean residue ellipticity at 222 nm, 50 mM PO4, pH 7.0, 25 °C
  residual helicity in the unbound state: ~20%

## GB1-PUMA: 90 aa chain containing a soluble GB1 domain fused to the N-terminus of the 34 aa PUMA peptide (from UniProt Q99ML1 128-161)
[12]
  kon: 1.29e+07 M⁻¹ s⁻¹

B1: Mouse PUMA peptide, residues 128-161, M144I, N-terminal acetylation and C-terminal amidation (peptide, UniProt Q99ML1 128-161, looked up)
peptide: Ac-VEEEEWAREIGAQLRRIADDLNAQYERRRQEEQH-NH2
[13]
  binding result: binds
[14]
  Kd: 100 pM
  koff: 0.0016 s⁻¹
[15]
  kon: 1.59e+07 M⁻¹ s⁻¹

B2: Mcl-1: truncated mouse Mcl-1 (UniProt P97287) with 151 N-terminal residues and 23 C-terminal residues removed; GS added at N-terminus (protein)
chain: GSEDDLYRQSLEIISRYLREQATGSKDSKPLGEAGAAGRRALETLRRVGDGVQRNHETAFQGMLRKLDIKNEGDVKSFSRVMVHVFKDGVTNWGRIVTLISFGAFVAKHLKSVNQESFIEPLAETITDVLVRTKRDWLVKQRGWDGFVEFFHVQDLEGG
modifications: left off: His6, N-terminal, cleaved
notes: truncated mouse Mcl-1 (UniProt P97287) with 151 N-terminal residues and 23 C-terminal residues removed; GS added at N-terminus
[1]
  fluorescence emission maximum: 330 nm
[16]
  urea concentration up to which protein remains folded: 3.5 M
